Results published in US20070254847A1, “Pharmaceutical Composition Containing Steroidal Saponins, the Preparation Method and Use Thereof” (priority 2004, published 2007).
Marks after values point to notes of the source that are not given here.

Tested on: acute myocardial infarction in rats
Experiment: Effect on acute myocardial infarction in rats (ligation of left anterior descending coronary artery)
Assay type: in vivo, Wistar rats
Protocol: Test 1 Effect of Pseudoprotogracillin (□) on Acute Myocardial Infarction in Rats:
Pseudoprotogracillin (□) obtained in example 4 was applied in relevant pharmacological tests as follows:
Wistar rats, each weighing 180˜220 g, were randomized into 3 groups, namely control group, pseudoprotogracillin group of high dose and pseudoprotogracillin group of low dose, each of which had 12 rats. The rats in the control group were administered by gastric infusion of distilled water. The other rats in test groups were administered by gastric infusion of the relevant medicinal liquid (prepared with distilled water), according to the high dose (3 mg/kg) or low dose (1.5 mg/kg) listed in following table for each group, respectively. Infusion was performed once a day and continued for one week. 1 hour after last administration, urethane of 1 g/kg was given to the rats for abdominal anesthesia. The animal was fixed on its back and its skin was cut open along the midline of its sternum, along the left edge of which an incision was made for the heart to be squzeezed out quickly. Ligation was immediately made at the root of the left anterior descending branch of its coronary artery before putting the heart back into its thorax, which was then closed by suture and spontaneous breathing was restored. The test was ended 3 hours after ligation and the heart was sliced transversely below the line of ligation. 5 slices were blue-stained with nitrotetrazolium and an multiple color pathological analyzer (MPIAS-500) was applied to measure the areas of normal myocardium and infarct myocardium at a fixed imaging distance and to observe the degree of myocardial infarction.

[1] = High dose 3 mg/kg, gastric infusion once a day for one week, 3 hours after ligation, X ± s
[2] = Low dose 1.5 mg/kg, gastric infusion once a day for one week, 3 hours after ligation, X ± s

In the case of “26-0-β-D-glucopyranosyl-3β, 26 glyco-25 (R)-Δ^5,20(22)-diene-furo-3-O-[α-L-Rhamnop yranosyl(1→2)]-[β-D-glucopyranosyl(1→3)]-β-D-glucopyranoside [pseudoprotogracillin (II)]”, the “Percentage of infarct area to the heart” value [1] is reported as 20.74 ± 1.9 %, the “Percentage of infarct area to ventricle” value [1] is reported as 24.5 ± 2.6 % and the Weight of infraction [1] is reported as 0.227 ± 0.032 g. The Area of infraction [2] was 91.3 ± 11.49* mm^2, the “Percentage of infarct area to the heart” value [2] was 25.2 ± 2.3 % and the “Percentage of infarct area to ventricle” value [2] was 28.1 ± 1.9 %. For the same substance, the Weight of infraction [2] was 0.241 ± 0.045 g and the “Action on myocardium (in words)” value (high and low dose vs control group) was “obvious action to protect myocardium”.
